Data set [1] addresses T1, wild-type human cardiac sodium channel, hNav1.5 (Homo sapiens, UniProt Q14524). The data set is described as follows: Late INa screening assay (late sodium current, PatchXpress whole cell patch clamp). To be noted: read-out: Late INa % blk. Type of data set: cell-based. (The patch-clamp technique gives a direct electrical read-out from membranes.)
The next data set concerns the target hERG potassium channel (Homo sapiens, UniProt Q12809). The data set is described as follows: hERG screening assay (PatchXpress patch clamp, CHO cell line). For orientation: hERG is a cardiac potassium channel; its block is linked to QT prolongation.
Data set [2] deals with T1, wild-type human cardiac sodium channel, hNav1.5. The data set is described as follows: Peak INa screening assay (tonic block TB and use-dependent block UDB of peak sodium current). Type of data set: cell-based. To be noted: compound at 10 μM. As for the experimental part:
The late sodium current (Late INa) and peak sodium current (Peak INa) assays are performed on an automated electrophysiology platform, PatchXpress 7000A (MDS Analytical Technologies, Sunnyvale, Calif.), which uses the whole cell patch clamp technique to measure currents through the cell membrane of up to 16 cells at a time. The assay uses an HEK293 (human embryonic kidney) cell line heterologously expressing the wild-type human cardiac sodium channel, hNav1.5, purchased from Millipore (Billerica, Mass.). No beta subunits were coexpressed with the Na channel alpha subunit. […] Experiments are carried out at 24-27° C.
For both the Late INa and Peak INa assays, series resistance compensation is set to 50% and whole-cell compensation is performed automatically. […] Currents through open sodium channels are automatically recorded and stored in the DataXpress2 database (MDS Analytical Technologies, Sunnyvale, Calif.). Analysis is performed using DataXpress2 analysis software and data are compiled in Excel.
Compound stocks are routinely made in glass vials to 10 mM in dimethyl sulfoxide (DMSO). In some cases, when compounds are not soluble in DMSO, they are made in 100% ethanol. Stocks are sonicated as necessary. The extracellular solution for screening Late INa is composed of: 140 mM NaCl, 4 mM KCl, 1.8 mM CaCl2, 0.75 mM MgCl2, and 5 mM HEPES with pH adjusted to 7.4 using NaOH. The extracellular solution for screening Peak INa is composed of: 20 mM NaCl, 120 mM N-methyl-D glucamine, 4 mM KCl, 1.8 mM CaCl2, 0.75 mM MgCl2, and 5 mM HEPES with pH adjusted to 7.4 using HCl. The intracellular solution used to perfuse the inside of the cells for both the Late INa and Peak INa assays contains: 120 mM CsF, 20 mM CsCl, 5 mM EGTA, 5 mM HEPES and pH adjusted to 7.4 with CsOH. Compounds are diluted in extracellular solution to 10 μM in glass vials and then transferred to glass well plates before robotic addition to the cells. The 0 Na extracellular solution used at the end of each experiment for the Late INa and Peak INa assays to measure baseline current contains: 140 mM N-methyl-D-glucamine; 4 mM KCl; 1.8 mM CaCl2; 0.75 mM MgCl2; 5 mM HEPES and pH was adjusted to 7.4 with HCl.
Compounds were also evaluated for their effect in several other assays, including their effect on Peak INa. In some cases, the effect on Peak INa was measured using data from the Late INa assay. […] Since the peak INa can be very large, introducing artifacts in the recording, the concentration of Na^+ in the bath is reduced to 20 mM and a nonpermeant cation is added to compensate for the Na^+ that was omitted from the standard extracellular solution (see above). The peak INa assay uses a holding potential of −100 mV and a 20 ms test pulse to 0 mV to activate the channel. As in the Late INa assay, stepping the voltage to 0 mV causes a rapid increase in negative Na current through hNav1.5 that inactivates within a few ms. No late INa activator is added for the peak assay.
For the separate peak INa assay, both tonic (TB) block and use-dependent (UDB) block of peak inward sodium current by 10 μM compound are determined. TB is block of the channel in the resting state, before the channel opens. TB is simulated in this assay by stimulating the channel to open at a low frequency (0.1 Hz). This is done in order to measure the control current amplitude and monitor current rundown, enabling correction for rundown in the calculation of percent block for TB.

Where [3] appears, read: tonic block, read-out: Tonic Peak INa % blk.
[4] abbreviates: use-dependent block, read-out: UDB Peak INa % blk.

T1 sequence (Q14524 whole entry): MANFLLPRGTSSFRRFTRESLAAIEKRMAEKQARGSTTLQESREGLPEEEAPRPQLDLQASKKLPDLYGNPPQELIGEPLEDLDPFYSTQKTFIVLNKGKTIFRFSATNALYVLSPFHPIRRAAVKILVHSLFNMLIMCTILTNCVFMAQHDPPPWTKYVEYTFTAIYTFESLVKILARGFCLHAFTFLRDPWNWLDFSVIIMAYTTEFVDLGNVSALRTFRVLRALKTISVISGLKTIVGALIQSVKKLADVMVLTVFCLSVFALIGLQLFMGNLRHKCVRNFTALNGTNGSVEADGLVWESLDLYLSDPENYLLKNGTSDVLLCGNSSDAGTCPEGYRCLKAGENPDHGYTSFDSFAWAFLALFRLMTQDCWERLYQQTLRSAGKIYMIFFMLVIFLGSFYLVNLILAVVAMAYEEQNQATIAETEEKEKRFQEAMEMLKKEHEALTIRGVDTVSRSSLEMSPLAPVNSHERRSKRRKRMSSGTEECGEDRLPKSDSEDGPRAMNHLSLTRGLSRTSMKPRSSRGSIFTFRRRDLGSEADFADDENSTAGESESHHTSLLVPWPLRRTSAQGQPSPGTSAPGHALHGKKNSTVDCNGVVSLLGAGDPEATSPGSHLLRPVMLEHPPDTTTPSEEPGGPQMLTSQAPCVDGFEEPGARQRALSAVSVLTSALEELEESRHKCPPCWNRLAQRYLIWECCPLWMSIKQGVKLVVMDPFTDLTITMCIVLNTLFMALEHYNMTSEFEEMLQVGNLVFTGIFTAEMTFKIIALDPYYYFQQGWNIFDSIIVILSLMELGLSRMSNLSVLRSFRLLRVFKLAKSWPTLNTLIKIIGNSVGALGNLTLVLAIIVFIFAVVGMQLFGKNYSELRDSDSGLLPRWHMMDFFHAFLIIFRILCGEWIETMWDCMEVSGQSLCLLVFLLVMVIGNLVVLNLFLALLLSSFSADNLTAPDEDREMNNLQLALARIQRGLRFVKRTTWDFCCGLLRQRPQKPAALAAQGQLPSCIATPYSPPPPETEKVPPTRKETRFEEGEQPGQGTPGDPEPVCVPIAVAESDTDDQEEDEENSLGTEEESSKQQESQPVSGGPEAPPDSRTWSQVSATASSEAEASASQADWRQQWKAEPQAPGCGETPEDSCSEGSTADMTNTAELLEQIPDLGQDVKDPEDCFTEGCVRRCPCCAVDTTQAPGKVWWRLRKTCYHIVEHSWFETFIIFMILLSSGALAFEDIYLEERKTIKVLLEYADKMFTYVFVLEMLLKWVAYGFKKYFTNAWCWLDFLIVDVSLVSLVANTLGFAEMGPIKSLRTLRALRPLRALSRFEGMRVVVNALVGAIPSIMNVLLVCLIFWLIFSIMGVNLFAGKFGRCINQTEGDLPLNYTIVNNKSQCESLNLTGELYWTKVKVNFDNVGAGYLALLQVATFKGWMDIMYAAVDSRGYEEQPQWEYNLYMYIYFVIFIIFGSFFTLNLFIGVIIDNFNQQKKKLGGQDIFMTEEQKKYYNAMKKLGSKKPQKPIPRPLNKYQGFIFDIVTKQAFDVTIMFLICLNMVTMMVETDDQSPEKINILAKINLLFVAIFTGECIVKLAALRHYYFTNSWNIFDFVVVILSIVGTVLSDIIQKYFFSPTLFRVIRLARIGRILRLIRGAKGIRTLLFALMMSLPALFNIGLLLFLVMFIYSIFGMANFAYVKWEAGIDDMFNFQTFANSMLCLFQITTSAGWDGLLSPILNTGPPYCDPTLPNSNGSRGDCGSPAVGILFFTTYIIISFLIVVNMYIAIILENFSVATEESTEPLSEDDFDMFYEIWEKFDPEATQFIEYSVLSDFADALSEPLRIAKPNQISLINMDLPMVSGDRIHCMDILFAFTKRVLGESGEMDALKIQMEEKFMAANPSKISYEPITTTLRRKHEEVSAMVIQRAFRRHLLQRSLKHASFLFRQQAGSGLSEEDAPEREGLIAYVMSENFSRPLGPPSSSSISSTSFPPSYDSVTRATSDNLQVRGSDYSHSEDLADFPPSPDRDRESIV
Chain of hERG potassium channel (Q12809 whole entry): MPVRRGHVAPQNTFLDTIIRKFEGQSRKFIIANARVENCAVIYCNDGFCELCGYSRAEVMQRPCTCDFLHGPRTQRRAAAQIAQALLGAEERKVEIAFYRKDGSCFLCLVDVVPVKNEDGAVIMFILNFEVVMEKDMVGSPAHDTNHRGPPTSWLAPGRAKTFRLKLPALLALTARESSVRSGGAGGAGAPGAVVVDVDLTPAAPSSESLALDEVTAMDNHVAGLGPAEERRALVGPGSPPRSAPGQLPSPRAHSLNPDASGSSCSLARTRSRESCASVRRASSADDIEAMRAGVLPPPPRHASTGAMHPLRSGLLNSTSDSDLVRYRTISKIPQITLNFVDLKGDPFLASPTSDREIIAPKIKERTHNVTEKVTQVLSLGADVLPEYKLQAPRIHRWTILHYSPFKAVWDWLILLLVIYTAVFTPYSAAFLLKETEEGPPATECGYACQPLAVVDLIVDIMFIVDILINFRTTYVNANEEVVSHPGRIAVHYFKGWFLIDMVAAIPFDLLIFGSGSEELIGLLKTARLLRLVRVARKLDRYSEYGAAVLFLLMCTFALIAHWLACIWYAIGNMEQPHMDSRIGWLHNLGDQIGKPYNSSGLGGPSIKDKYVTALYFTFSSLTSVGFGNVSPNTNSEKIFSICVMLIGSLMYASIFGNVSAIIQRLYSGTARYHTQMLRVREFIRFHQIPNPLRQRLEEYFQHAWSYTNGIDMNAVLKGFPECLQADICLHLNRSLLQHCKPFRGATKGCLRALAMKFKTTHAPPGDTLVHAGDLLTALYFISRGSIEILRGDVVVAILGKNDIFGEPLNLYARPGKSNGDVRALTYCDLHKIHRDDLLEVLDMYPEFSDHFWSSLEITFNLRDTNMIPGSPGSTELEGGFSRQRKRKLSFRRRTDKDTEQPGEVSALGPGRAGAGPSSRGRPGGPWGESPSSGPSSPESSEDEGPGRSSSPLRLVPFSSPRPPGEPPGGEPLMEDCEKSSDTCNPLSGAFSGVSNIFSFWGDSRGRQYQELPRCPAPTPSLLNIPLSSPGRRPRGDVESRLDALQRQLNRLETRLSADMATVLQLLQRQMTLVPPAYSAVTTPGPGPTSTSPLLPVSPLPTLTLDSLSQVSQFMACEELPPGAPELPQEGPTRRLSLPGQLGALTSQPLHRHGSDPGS
Procedure for hERG potassium channel: Compounds were screened to test their activity in blocking the hERG potassium channel. The hERG channel is heterologously expressed in a CHO (Chinese Hamster Ovary) cell line. Cells are maintained with standard tissue culture procedures and stable channel expression is maintained with 500 μg/ml G418 in the culture medium. Cells are harvested for testing on the PatchXpress automated patch clamp with Accumax (Innovative Cell Technologies, San Diego, Calif.) to isolate single cells.
The following solutions are used for electrophysiological recordings. The external solution contains: 2 mM CaCl2; 2 mM MgCl2; 4 mM KCl; 150 mM NaCl; 10 mM Glucose; 10 mM HEPES (pH 7.4 with 1M NaOH, osmolarity).
hERG channels are activated when the voltage is stepped to +20 mV from the −80 mV holding potential (see FIG. 3). During a 5 second step at +20 mV, the channels activate and then largely inactivate, so the currents are relatively small. Upon returning to −50 mV from +20 mV, hERG currents transiently become much larger as inactivation is rapidly removed and then the channel closes. The first step to −50 mV for 300 ms is used as a baseline for measuring the peak amplitude during the step to −50 mV after channel activation. The peak current at −50 mV is measured both under control conditions and after addition of compound.
All compounds are prepared as 10 mM DMSO stocks in glass vials. Stock solutions are mixed by vigorous vortexing and sonication for about 2 minutes at room temperature. For testing, compounds are diluted in glass vials using an intermediate dilution step in pure DMSO and then further diluted to working concentrations in external solution. Dilutions are prepared no longer than 20 minutes before use.
After achieving the whole-cell configuration, cells are monitored for 90 seconds to assess stability and washed with external solution for 66 seconds. The voltage protocol described above is then applied to the cells every 12 seconds and throughout the whole procedure. Only cells with stable recording parameters and meeting specified health criteria are allowed to enter the compound addition procedure.
External solution containing 0.1% DMSO (vehicle) is applied to the cells first to establish the control peak current amplitude. After allowing the current to stabilize for 3 to 5 minutes, 1 μM and then 10 μM test compounds are applied. Each compound concentration is added 4 times and cells are kept in test solution until the effect of the compound reaches steady state or for a maximum of 12 minutes. […] Washout in the external solution compartment is performed until the recovery of the current reaches steady state. Data are analyzed using DataXpress, Clampfit (Molecular Devices, Inc., Sunnyvale) and Origin 7 (Originlab Corp.)

Turning to `CCOC(=O)C1=C(C)NC(C)=C(C(=O)OCC)C1c1cc2ccccc2s1` [PT-114, diethyl 4-(benzo[b]thiophen-2-yl)-2,6-dimethyl-1,4-dihydropyridine-3,5-dicarboxylate], the inhibition at 10 µM in data set [1] (compound at 10 μM) was 85%; in data set [2] (setting [3]), 13.1%. Moreover, the “hERG Patch Clamp hERG % blk” value came out at 20.9% on hERG potassium channel (1 μM) and 51.5% on hERG potassium channel (10 μM).
The corresponding values for `CC1=C(C(=O)OCc2ccccc2)C(c2c(-c3ccc(C(=O)O)cc3)sc3ccccc23)n2nnnc2N1` (stereo not drawn) [PT-294, 4-(3-(6-(benzyloxycarbonyl)-5-methyl-4,7-dihydrotetrazolo[1,5-a]pyrimidin-7-yl)benzo[b]thiophen-2-yl)benzoic acid] are 67.2%, 24.4%, 12.5% and 15.5%.
In the case of `CCOC(=O)C1=C(C)NC(C)=C(C(=O)OCC)C1c1ccc(CC)s1` [PT-113, diethyl 4-(5-ethylthiophen-2-yl)-2,6-dimethyl-1,4-dihydropyridine-3,5-dicarboxylate], the inhibition at 10 µM in data set [1] (compound at 10 μM) stood at 88.6%; in data set [2] (setting [3]), 30.4%. For the same compound, the results for the “hERG Patch Clamp hERG % blk” value at hERG potassium channel (1 μM) and at hERG potassium channel (10 μM) were 11.0% and 57.3%, respectively.
Take `CC1=C(C(=O)OCc2ccccc2)C(c2ccc(N(C)C)c3ccccc23)n2nnnc2N1` (stereo not drawn) [PT-032, benzyl 7-(4-(dimethylamino)naphthalen-1-yl)-5-methyl-4,7-dihydrotetrazolo[1,5-a]pyrimidine-6-carboxylate]: the inhibition at 10 µM in data set [1] (compound at 10 μM) stood at 63.6%; in data set [2] (setting [3]), 11.5%. The “hERG Patch Clamp hERG % blk” value on hERG potassium channel (1 μM) is 19.0%; at hERG potassium channel (10 μM), 50.5%.
`CCOC(=O)C1=C(C)Nc2nnnn2C1c1cccc2ccccc12` (stereo not drawn) [PT-192, ethyl 5-methyl-7-(naphthalen-1-yl)-4,7-dihydrotetrazolo[1,5-a]pyrimidine-6-carboxylate]: the figures for the inhibition at 10 µM in data set [1] and in data set [2] (setting [3]) were 52.3% and 0%, respectively. For the same compound, the “hERG Patch Clamp hERG % blk” value on hERG potassium channel (1 μM) amounted to 23.0%; at hERG potassium channel (10 μM), 29.0%.
Consider `CC1=C(C(=O)OCc2ccccc2)C(c2nccs2)c2cn[nH]c2N1` (stereo not drawn) [PT-369, benzyl 6-methyl-4-(thiazol-2-yl)-4,7-dihydro-1H-pyrazolo[3,4-b]pyridine-5-carboxylate], for which the inhibition at 10 µM in data set [1] (compound at 10 μM) amounted to 47.3%; in data set [2] (setting [3]), 26.3%; in data set [2] (setting [4]) it was 13.5%. Besides, the “hERG Patch Clamp hERG % blk” value stood at 10.0% at hERG potassium channel (1 μM) and 25.0% at hERG potassium channel (10 μM).
On to `CCOC(=O)C1=C(C)NC(C)=C(C(=O)OCC)C1c1ccc2ccccc2c1` [PT-107, diethyl 2,6-dimethyl-4-(naphthalen-2-yl)-1,4-dihydropyridine-3,5-dicarboxylate], for which the inhibition at 10 µM in data set [1] (compound at 10 μM) stood at 91.9%; in data set [2] (setting [3]), 25.9%. Also, the “hERG Patch Clamp hERG % blk” value stood at 11.5% on hERG potassium channel (1 μM) and 48.0% on hERG potassium channel (10 μM).
As for `CCOC(=O)C1=C(C)Nc2[nH]ncc2C1c1ccc(OC)cc1OCc1ccccc1` (stereo not drawn) [PT-445, ethyl 4-(2-(benzyloxy)-4-methoxyphenyl)-6-methyl-4,7-dihydro-1H-pyrazolo[3,4-b]pyridine-5-carboxylate], the values for the inhibition at 10 µM in data set [1] (compound at 10 μM), in data set [2] (setting [3]) and in data set [2] (setting [4]) were 62.2%, 49.6% and 31.6%, respectively. In addition, the results for the “hERG Patch Clamp hERG % blk” value on hERG potassium channel (1 μM) and at hERG potassium channel (10 μM) were 10.5% and 50.0%, respectively.
With `N#CC1=C(N)OC2=C(C(=O)CC(c3ccccc3)C2)C1c1cccs1` (stereo not drawn) [PT-101, 2-amino-5-oxo-7-phenyl-4-(thiophen-2-yl)-5,6,7,8-tetrahydro-4H-chromene-3-carbonitrile], the inhibition at 10 µM was found to be 49.3% in data set [1] (compound at 10 μM) and 2.9% in data set [2] (setting [3]). Also, the entries for the “hERG Patch Clamp hERG % blk” value at hERG potassium channel (1 μM) and at hERG potassium channel (10 μM) were 19.0% and 67.5%, respectively.
The corresponding values for `CCOC(=O)C1=C(C)N(C)C(C)=C(C(=O)OCC)C1c1cccc2ccccc12` [PT-191, diethyl 1,2,6-trimethyl-4-(naphthalen-1-yl)-1,4-dihydropyridine-3,5-dicarboxylate] are 63.2%, 0%, 26.5% and 68.0%.
`CC1=C(C(=O)OCc2ccccc2)C(c2ccc3ccccc3c2)c2c(C)n[nH]c2N1` (stereo not drawn) [PT-325, benzyl 3,6-dimethyl-4-(naphthalen-2-yl)-4,7-dihydro-1H-pyrazolo[3,4-b]pyridine-5-carboxylate]: the figures for the inhibition at 10 µM in data set [1] (compound at 10 μM), in data set [2] (setting [3]) and in data set [2] (setting [4]) were 53.8%, 19.9% and 24.3%, respectively. In addition, the “hERG Patch Clamp hERG % blk” value at hERG potassium channel (1 μM) amounted to 10.0%; at hERG potassium channel (10 μM), 36.0%.
With `CCOC(=O)C1=C(CC)NC(CC)=C(C(=O)OCC)C1c1ccc(Br)s1` [PT-181, diethyl 4-(5-bromothiophen-2-yl)-2,6-diethyl-1,4-dihydropyridine-3,5-dicarboxylate], the inhibition at 10 µM is 91.7% in data set [1] (compound at 10 μM) and 76.5% in data set [2] (setting [3]). Also, the “hERG Patch Clamp hERG % blk” value came to 10.5% on hERG potassium channel (1 μM) and 73.0% at hERG potassium channel (10 μM).
The matching figures for `CC1=C(C(=O)OCc2ccccc2)C(c2ccccc2N2CCN(C)CC2)n2nnnc2N1` (stereo not drawn) [PT-340, benzyl 5-methyl-7-(2-(4-methylpiperazin-1-yl)phenyl)-4,7-dihydrotetrazolo[1,5-a]pyrimidine-6-carboxylate]: 71.9%, 89.1%, 57.0% and 93.5%.
The matching figures for `CCOC(=O)C1=C(C)Nc2nnnn2C1c1ccc2ccccc2c1` (stereo not drawn) [PT-008, ethyl 5-methyl-7-(naphthalen-2-yl)-4,7-dihydrotetrazolo[1,5-a]pyrimidine-6-carboxylate]: 57.2%, 2.1%, 10.0% and 33.5%.
For the compound `CCOC(=O)C1=C(C)NC(C)=C(C(=O)OCC)C1c1ccccc1Br` [PT-430, diethyl 4-(2-bromophenyl)-2,6-dimethyl-1,4-dihydropyridine-3,5-dicarboxylate], the inhibition at 10 µM in data set [1] (compound at 10 μM) turned out to be 95.3%; in data set [2] (setting [3]) it was 91%; in data set [2] (setting [4]), 55.6%. Also, the “hERG Patch Clamp hERG % blk” value on hERG potassium channel (1 μM) amounted to 10.0%; on hERG potassium channel (10 μM), 21.5%.
On to `CC1=C(C(=O)OCc2ccccc2)C(c2ccccc2-c2cccc(NS(C)(=O)=O)c2)n2nnnc2N1` (stereo not drawn) [PT-348, benzyl 5-methyl-7-(3′-(methylsulfonamido)biphenyl-2-yl)-4,7-dihydrotetrazolo[1,5-a]pyrimidine-6-carboxylate], for which the inhibition at 10 µM was found to be 71.6% in data set [1] (compound at 10 μM) and 17.2% in data set [2] (setting [3]). Also, the “hERG Patch Clamp hERG % blk” value at hERG potassium channel (1 μM) was 10.0%; on hERG potassium channel (10 μM), 38.5%.
The matching figures for `CC1=C(C(=O)N2CCC(c3ccc(C(=O)O)cc3)CC2)C(c2cccc3ccccc23)C2=C(CCCC2=O)N1` (stereo not drawn) [PT-173, 4-(1-(2-methyl-4-(naphthalen-1-yl)-5-oxo-1,4,5,6,7,8-hexahydroquinoline-3-carbonyl)piperidin-4-yl)benzoic acid]: 52.6%, 0%, 12.0% and 37.0%.
